Laboratory results: ChEMBL document CHEMBL4699540, “Discovery and structure activity relationships of 7-benzyl triazolopyridines as stable, selective, and reversible inhibitors of myeloperoxidase” (Bioorg Med Chem, 2020)

Assays:
Cytochrome P450 1A2 = molecular target: T1, Cytochrome P450 1A2 (Homo sapiens, UniProt P05177); assay: Inhibition of CYP1A2 (unknown origin); type: ADME
T1 sequence (P05177 whole entry): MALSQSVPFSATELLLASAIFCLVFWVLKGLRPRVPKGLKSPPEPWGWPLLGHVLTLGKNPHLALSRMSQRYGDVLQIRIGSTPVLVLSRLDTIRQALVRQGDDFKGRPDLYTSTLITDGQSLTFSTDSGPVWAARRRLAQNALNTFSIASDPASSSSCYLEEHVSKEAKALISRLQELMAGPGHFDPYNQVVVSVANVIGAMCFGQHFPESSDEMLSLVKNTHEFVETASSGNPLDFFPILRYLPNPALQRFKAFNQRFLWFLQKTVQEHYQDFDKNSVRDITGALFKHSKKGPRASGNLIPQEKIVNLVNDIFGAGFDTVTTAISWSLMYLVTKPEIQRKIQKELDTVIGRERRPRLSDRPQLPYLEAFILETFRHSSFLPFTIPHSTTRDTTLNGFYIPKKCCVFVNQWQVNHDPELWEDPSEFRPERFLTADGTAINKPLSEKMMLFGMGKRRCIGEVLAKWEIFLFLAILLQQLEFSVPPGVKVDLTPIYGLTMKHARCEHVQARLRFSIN

[1] = Binding affinity to human neutrophil MPO delta (1-95) measured for 5 mins by SPR assay
Cytochrome P450 2D6 = Cytochrome P450 2D6 (Homo sapiens, UniProt P10635); assay: Inhibition of CYP2D6 (unknown origin); type: ADME
Chain of Cytochrome P450 2D6 (P10635 whole entry): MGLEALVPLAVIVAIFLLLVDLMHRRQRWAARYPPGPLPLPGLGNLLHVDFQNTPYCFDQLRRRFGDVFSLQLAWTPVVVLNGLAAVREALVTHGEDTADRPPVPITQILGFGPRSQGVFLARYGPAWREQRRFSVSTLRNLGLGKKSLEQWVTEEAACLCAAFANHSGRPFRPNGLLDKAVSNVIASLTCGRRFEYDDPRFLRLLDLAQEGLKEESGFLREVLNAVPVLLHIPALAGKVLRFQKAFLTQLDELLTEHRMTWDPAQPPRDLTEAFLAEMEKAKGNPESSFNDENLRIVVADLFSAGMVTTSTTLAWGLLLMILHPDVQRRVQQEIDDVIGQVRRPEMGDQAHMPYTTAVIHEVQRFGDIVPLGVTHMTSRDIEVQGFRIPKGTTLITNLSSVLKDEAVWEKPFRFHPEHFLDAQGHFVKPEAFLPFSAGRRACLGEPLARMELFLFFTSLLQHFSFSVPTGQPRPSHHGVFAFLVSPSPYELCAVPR

[2] = Plasma concentration in human MPO transgenic thioglycollate-induced peritonitis mouse model at 30 mg/kg, po measured after 6 hrs by LC/MS analysis; type: ADME, organism-based
[3] = Cmax in CD-1 mouse at 3 mg/kg, po by LC/MS analysis; type: ADME, organism-based; parameters: route oral, dose 3 mg/kg; settings: in vivo
Myeloperoxidase = molecular target: T2, Myeloperoxidase (Mus musculus, UniProt P11247); assay: Inhibition of PMA-induced MPO in mouse Neutrophil incubated for 3 mins by luminometry; type: tissue-based
T2 sequence (P11247 whole entry): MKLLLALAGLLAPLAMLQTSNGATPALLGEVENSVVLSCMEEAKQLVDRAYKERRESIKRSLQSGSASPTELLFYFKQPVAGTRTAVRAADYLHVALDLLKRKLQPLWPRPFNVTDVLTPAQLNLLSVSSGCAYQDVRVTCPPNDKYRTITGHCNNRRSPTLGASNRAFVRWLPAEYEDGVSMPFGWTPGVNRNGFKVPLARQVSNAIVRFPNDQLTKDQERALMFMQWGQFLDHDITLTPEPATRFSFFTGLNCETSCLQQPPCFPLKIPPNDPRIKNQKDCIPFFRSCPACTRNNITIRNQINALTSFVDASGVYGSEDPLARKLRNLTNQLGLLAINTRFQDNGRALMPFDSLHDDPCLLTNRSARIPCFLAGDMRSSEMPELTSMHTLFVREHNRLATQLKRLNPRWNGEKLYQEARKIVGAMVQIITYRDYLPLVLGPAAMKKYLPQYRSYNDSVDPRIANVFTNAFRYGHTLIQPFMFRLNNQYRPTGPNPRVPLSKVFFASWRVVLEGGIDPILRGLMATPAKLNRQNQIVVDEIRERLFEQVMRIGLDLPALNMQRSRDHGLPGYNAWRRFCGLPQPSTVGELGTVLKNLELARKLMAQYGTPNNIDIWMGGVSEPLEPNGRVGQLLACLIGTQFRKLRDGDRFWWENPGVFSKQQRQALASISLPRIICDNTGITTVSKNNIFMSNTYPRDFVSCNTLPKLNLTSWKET

[4] = AUCtot in CD-1 mouse at 3 mg/kg, po by LC/MS analysis; type: ADME, organism-based; parameters: time AUCmax, route oral, dose 3 mg/kg; settings: in vivo
Cytochrome P450 2B6 = molecular target: T3, Cytochrome P450 2B6 (Homo sapiens, UniProt P20813); assay: Inhibition of CYP2B6 (unknown origin); type: ADME
T3 sequence (P20813 whole entry): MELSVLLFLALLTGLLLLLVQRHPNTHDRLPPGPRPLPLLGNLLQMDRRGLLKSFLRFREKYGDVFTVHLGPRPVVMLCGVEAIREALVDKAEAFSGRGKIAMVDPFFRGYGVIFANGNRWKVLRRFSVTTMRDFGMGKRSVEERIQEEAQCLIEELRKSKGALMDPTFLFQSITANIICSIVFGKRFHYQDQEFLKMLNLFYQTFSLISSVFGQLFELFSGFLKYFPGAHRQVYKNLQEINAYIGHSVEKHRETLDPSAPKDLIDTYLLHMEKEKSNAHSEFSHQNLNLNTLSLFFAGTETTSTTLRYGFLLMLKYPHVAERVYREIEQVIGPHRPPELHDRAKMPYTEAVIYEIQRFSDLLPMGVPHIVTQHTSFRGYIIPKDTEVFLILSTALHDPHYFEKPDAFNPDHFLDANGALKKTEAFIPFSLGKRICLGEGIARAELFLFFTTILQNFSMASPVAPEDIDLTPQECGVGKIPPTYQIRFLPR

## Nc1cc(Cc2ccccc2)c2nn[nH]c2n1
Cytochrome P450 1A2
  IC50: > 10 µM
[1]
  Kd: 0.032 µM
Cytochrome P450 2D6
  IC50: > 10 µM
[2]
  concentration at 6 h: 26 µM
[3]
  Cmax: 13 µM
Myeloperoxidase
  IC50: 9.5 µM
[4]
  AUC: 47.9 µM·h
Cytochrome P450 2B6
  IC50: > 10 µM
